The test system of one series is 5-FU induced weight loss. Kind of series: Protection from 5-FU induced weight loss by uridine alone or uridine plus TK-90. In kind it is in vivo, CD-1 mice. An excerpt:
Weight loss is one of the cardinal features of mucositis. […] Controls include PBS alone at times mimicking the time for 5-FU and combined uridine and TK-90 treatments. There were n=6 animals in all groups.

The conditions of series [1]: man and animals; cited from earlier work.
For series [2] the following is noted: cited from earlier work.
Another series concerns plasma citrulline. Kind of series: Plasma citrulline after 5-FU (LC/MS/MS-Isotope assay), surrogate marker for mucositis. In kind it is in vivo, C57BL/6 female mice. The settings on record: Day 3. The protocol:
The chemotherapeutic challenge was diminished plasma citrulline by 5-FU treatment. The aim of this study was to explore whether a uridine phosphorylase inhibitor could prevent lowered plasma citrulline induced by 5-FU.
TK-90 solution was prepared at a concentration of 500 mg/mL in sterile PBS. Eight animals were used for Groups 1,2 and 3.
Osmotic pumps were placed inside the subcutaneous tunnel. Incision was sealed with Vetbond tissue adhesive and wound clips.
Blood collections were done to animals anesthetized with ketamine (ip 100 mg/kg). Whole blood (˜0.8 mL) was drawn through the retro-orbital sinus using a heparin coated micro-hematocrit tube and collected into a heparin microtainer tube. Blood samples were transferred into fresh 1.5 mL microcentrifuge tubes and centrifuged for 5 minutes at 10,000×g using an Eppendorf Minispin Plus stored in a 4° C. refrigerator. Following collection of the plasma samples, the animals were sacrificed on Day 3 by cervical dislocation and properly disposed. […]
Thawed plasma samples from the study were analyzed for citrulline using a published LC/MS/MS-Isotope assay. (Jones et al., Development and validation of a LC-MS/MS assay for quantitation of plasma citrulline for application to animal models of the acute radiation syndrome across multiple species,” Anal Bioanal Chem. (2014) 406(19):4663-75).

Series [3] deals with panel of cytokines and related biochemicals. Kind of series: Plasma cytokine changes induced by 5-FU, multiplex ELISA on plasma of Experiment III. In kind it is in vivo, C57BL/6 female mice. Conditions: Day 3; 200 mg/kg 5-FU ip plus 6000 mg/kg TK-90 osmotic pump over 24 hours; vs 5-FU alone. Here is the method:
The chemotherapeutic challenge was cytokine changes induced by 5-FU treatment.
Plasma samples from Experiment III were analyzed for a panel of cytokines and related biochemicals by multiplex ELISA. […] IL-1B, TNF-α, and IL-6 are pro-inflammatory cytokines known to be elevated with mucositis. (Logan et al., “The role of pro-inflammatory cytokines in cancer treatment-induced alimentary tract mucositis: pathobiology, animal models and cytotoxic drugs,” Cancer Treat Rev. (2007) 33(5):448-60; Ong et al., “Pro-inflammatory cytokines play a key role in the development of radiotherapy-induced gastrointestinal mucositis,” Radiat Oncol. (2010) (16) 5:22). TK-90 reverses elevation of all three of these cytokines (FIGS. 5, 6 and 7). IL-2 is a pleiotropic cytokine that drives growth and activation of inflammatory cells such as T-cells, NK cells, etc. IL-9 and IL-15 signal through IL-2. TK-90 reverse the 5-FU induced elevation of all three of these cytokines (FIGS. 8, 9, and 10). IL-12 is a cytokine linked to generation of an immune response. Another cytokine associated with generation of an immune response is IL-5. TK-90 reverse the 5-FU induced elevation of IL-12 and IL5 (FIGS. 11, 12 and 13). IL-10 is a cytokine that plays a central role in limiting host immune response. TK-90 reverses the elevation of IL-10 induced by the 5-FU treatment possibly allowing an immune response to proceed to potentially clear damaged tissue (FIG. 14). GM-CSF and M-CSF both stimulate cell mediators of inflammation. TK-90 reverse the 5-FU induced elevation of both GM-CSF and […] (FIGS. 15 and 16). MIP-2, and KC are chemokines that function much like GM-CSF, and M-CSF to stimulate cell mediators of inflammation TK-90 reverse the 5-FU induced elevation of the chemokines (FIGS. 17 and 18). 5-FU decreases eotaxin, a chemokine that recruits immune-related mediators like eosinophils into inflammatory sites (FIG. 19). TK-90 reverses this decrease.
A general note: In an ELISA, binding on a coated surface is turned into a signal by an enzyme label.

Series [4] can be described thus: Side effects of TK-90 (clinical trials). Conditions: in vivo.
Another series has as its system uridine. In words: Systemic uridine after administration of TK-90. The format is in vivo.
Series [5] concerns weight loss induced by 5-FU. The settings on record: 400 mg/kg 5-FU ip Day 0 plus 5333 mg/kg sc TK-90 by osmotic pump over 24 hours; compared to 5-FU alone.
Procedure: The chemotherapeutic challenge was weight loss induced by 5-FU (FIG. 2). […] The aim of this study was to explore whether 5-FU combined with a uridine phosphorylase inhibitor provides protection from weight loss, a principal toxicity of 5-FU.
Groups of CD-1 female mice entrained to light:dark (12:12 hours), and given food and water ad libitum, were used for this experiment. The mean weight of the mice at the start of the experiment was approximately 20 g. Control mice were injected ip with sterile PBS, the vehicle control (Group 1). Group 2 and Group 3 mice were injected, ip, with 400 mg/kg 5-FU (Sigma) dissolved in PBS. A 24-hour osmotic pump (ALZET® micro-osmotic pump, Alza Co) was implanted into Group 3 animals. The pumps were loaded with 200 μL (2001D osmotic pump) of a 500 mg/mL solution of TK-90 (FIG. 2) in PBS. The TK-90 dose over the 24-hour infusion was 5333 mg/kg. The four animals were used for Group 1 and 8 animals were used for Groups 2 and 3.
For the implantation of the osmotic pump, animals were anesthetized with 100 mg/kg ketamine prior to pump implantation. […]
Animals were sacrificed on Day 5 by cervical dislocation and properly disposed. Animal weights were recorded daily for 6 days and the percent difference between Day 0 and Day 5 at termination was calculated.
The conditions of series [6]: patients who receive 5-FU for their disease; cited from earlier work.

Molecules are shown by their SMILES. Entries after “also recorded” stand apart in the source; their conditions may differ.

As for `O=c1ccn([C@@H]2O[C@H](CO)[C@@H](O)[C@H]2O)c(=O)[nH]1` [uridine], the “percent change in weight Day 5 versus Day 0” value (“percent change” for short) in the series on 5-FU induced weight loss (80 mg/kg 5-FU qdx5 ip with 750 mg/kg uridine bid, compared to 5-FU alone) is on record as “statistically significant but much less”. Also, in series [1], the “half-life of administered uridine” value was around 3 min. Besides, the “toxicity of continuous infusions of high-dose uridine” value in series [2] (continuous infusion) was “high fever, cellulitis, and superior vena cava syndrome”. Besides, in series [2] (oral, high-dose, clinical studies), the “toxicity of orally administered uridine” value is “considerable GI dysfunction; also recorded: severe patient diarrhea, phlebitis and pyrogenic reactions”.
For `Cc1cn2c(nc1=O)O[C@H]1[C@H](O)[C@@H](CO)O[C@H]12` [TK-90], the “percent change” value with 5-FU induced weight loss (80 mg/kg 5-FU qdx5 ip with 750 mg/kg uridine and 120 mg/kg TK-90 bid, compared to 5-FU alone) is recorded as “protected from the weight loss”. Further, the plasma citrulline concentration entry with plasma citrulline (200 mg/kg 5-FU ip plus 6000 mg/kg TK-90 by osmotic pump over 24 hours starting 4 hours post 5-FU, compared to 5-FU alone) is listed as “reverses the decrease in plasma citrulline; also recorded: robust, statistically significant rebound in plasma citrulline”. In series [3], the “plasma GM-CSF” value was “highly significantly different; also recorded: reverses the increase in plasma GM-CSF”, the “plasma IL-1β” value is listed as “reverses the increase in plasma IL-1β”, the “plasma IL-2” value is reported as “reverses the increase in plasma IL-2” and the “plasma IL-6” value is “reverses the increase in plasma IL-6”. Also, in series [3], the “plasma IL-9” value was “highly significantly different; also recorded: reverses the increase in plasma IL-9”, the “plasma IL-10” value is given as “highly significantly different; also recorded: reverses the increase in plasma IL-10”, the “plasma IL-12 (P40)” value is given as “highly significantly different; also recorded: reverses the increase in plasma IL-12 (P40)” and the “plasma IL-12 (P70)” value was “highly significantly different; also recorded: reverses the increase in plasma IL-12 (P70)”. For the same molecule, in series [3], the “plasma IL-15” value is “highly significantly different; also recorded: reverses the increase in plasma IL-15”, the “plasma KC (keratinocytes-derived chemokine)” value is reported as “significantly different; also recorded: reverses the increase in plasma KC”, the “plasma M-CSF” value is “reverses the increase in plasma M-CSF” and the “plasma MIP-2” value is reported as “reverses the increase in plasma MIP-2”. Also, in series [3], the “plasma TNF-α” value is given as “reverses the increase in plasma TNF-α” and the plasma eotaxin entry is “reverses the decrease in plasma eotaxin”. Also, the side effects result in series [4] is “no known side effects”. The systemic uridine result in the series on uridine is “increases systemic uridine”. In addition, in series [5], the “percent weight change on Day 5 versus Day 0” value is listed as “protected from the weight loss”.
Turning to `O=c1[nH]cc(F)c(=O)[nH]1` [Compound 5-FU, 5-flurouracil], the “percent change” value in the series with 5-FU induced weight loss (80 mg/kg 5-FU qdx5 ip alone, compared to PBS vehicle control) is “robust weight loss”. In addition, the plasma citrulline concentration result in the series with plasma citrulline (200 mg/kg 5-FU ip alone, compared to PBS vehicle control) is reported as “significant reduction in citrulline”. Also, the “patients who develop mucositis” value in series [6] was “Approximately 80%”.

The values above are taken from US12109222B2, “Methods and compositions for treating mucositis” (Tosk, Inc., priority 2018, dated 2024).
